This is an account of results in ChEMBL document CHEMBL3822440, “Semi-synthesis and antiproliferative evaluation of PEGylated pentacyclic triterpenes” (Eur J Med Chem, 2016).

Experiment [1] relates to HT-29. Put plainly: Potency index, ratio of oleanolic acid IC50 to compound IC50 for human HT-29 cells. It counts as functional.
Experiment [2] relates to HepG2. Put plainly: Cytotoxicity against human HepG2 cells assessed as growth inhibition after 72 hrs by MTT assay. It counts as functional, cell-based. The settings on record: HepG2, 72 h.
The nature of experiment [3]: Cytotoxicity against mouse B16F10 cells assessed as growth inhibition after 72 hrs by MTT assay. The format is functional, cell-based. The settings on record: B16-F10, 72 h.
Experiment [4] relates to B16-F10. Put plainly: Potency index, ratio of oleanolic acid IC50 to compound IC50 for mouse B16F10 cells. It counts as functional.
The subject of experiment [5] is HT-29. Description: Cytotoxicity against human HT-29 cells assessed as growth inhibition after 72 hrs by MTT assay. The format is functional, cell-based. To be noted: HT-29, 72 h.
The test system of experiment [6] is HepG2. Description: Potency index, ratio of oleanolic acid IC50 to compound IC50 for human HepG2 cells. It counts as functional.
Experiment [7] deals with B16-F10. Put plainly: Potency index, ratio of maslinic acid IC50 to compound IC50 for mouse B16F10 cells. The format is functional.
Experiment [8] concerns HT-29. Description: Potency index, ratio of maslinic acid IC50 to compound IC50 for human HT-29 cells. The format is functional.
Experiment [9] relates to HepG2. Put plainly: Potency index, ratio of maslinic acid IC50 to compound IC50 for human HepG2 cells. The format is functional.

For the compound `CC1(C)CC[C@]2(C(=O)NCCCOCCOCCOCCCNC(=O)[C@]34CCC(C)(C)C[C@H]3C3=CC[C@@H]5[C@@]6(C)CC[C@H](O)C(C)(C)[C@@H]6CC[C@@]5(C)[C@]3(C)CC4)CC[C@]3(C)C(=CC[C@@H]4[C@@]5(C)CC[C@H](O)C(C)(C)[C@@H]5CC[C@]43C)[C@@H]2C1`, the entries for the “Ratio IC50” value in the experiment on HT-29 [1], in the experiment on B16-F10 [4] and in the experiment on HepG2 [6] were 5, 0.9 and 3.2, respectively. The concentration for half-maximal inhibition (IC50) in the experiment on HepG2 [2] stood at 66.7 µM; in experiment [3] it was 123 µM; with HT-29 [5], 85.6 µM.
On to `CC1(C)CC[C@]2(C(=O)O)CC[C@]3(C)C(=CC[C@@H]4[C@@]5(C)CC[C@H](O)C(C)(C)[C@@H]5CC[C@]43C)[C@@H]2C1` [OLEANOLIC_ACID], for which the half-maximal inhibitory concentration (IC50) was 212 µM in the experiment on HepG2 [2] and 430 µM in the experiment with HT-29 [5].
Turning to `CC(=O)O[C@H]1CC[C@]2(C)[C@H]3CC=C4[C@@H]5CC(C)(C)CC[C@]5(C(=O)O)CC[C@@]4(C)[C@]3(C)CC[C@H]2C1(C)C` [ACETYL OLEANOLIC ACID], the figures for the “Ratio IC50” value in the experiment on HT-29 [1], in the experiment on B16-F10 [4] and in the experiment with HepG2 [6] were 2.9, 1.6 and 2, respectively. For the same compound, the IC50 is 104 µM in the experiment on HepG2 [2] and 148 µM in the experiment with HT-29 [5].
Regarding `COCCOCCOCC(=O)O[C@H]1CC[C@]2(C)[C@H]3CC=C4[C@@H]5CC(C)(C)CC[C@]5(C(=O)OCc5ccccc5)CC[C@@]4(C)[C@]3(C)CC[C@H]2C1(C)C`, the “Ratio IC50” value is on record as 7 with HT-29 [1], 0.6 in the experiment on B16-F10 [4] and 2.5 with HepG2 [6]. The IC50 was 84.1 µM in the experiment on HepG2 [2], 175 µM in [3] and 61.6 µM with HT-29 [5].
As for `CC1(C)CC[C@]2(C(=O)OCc3ccccc3)CC[C@]3(C)C(=CC[C@@H]4[C@@]5(C)CC[C@H](O)C(C)(C)[C@@H]5CC[C@]43C)[C@@H]2C1`, the “Ratio IC50” value in the experiment on HT-29 [1] came to 6.4; in the experiment on B16-F10 [4], 2; in the experiment on HepG2 [6], 5.5. In addition, the half-inhibitory concentration (IC50) was 38.7 µM in the experiment with HepG2 [2] and 67.1 µM in the experiment on HT-29 [5].
For `CC(=O)O[C@H]1CC[C@]2(C)[C@H]3CC=C4[C@@H]5CC(C)(C)CC[C@]5(C(=O)NCCCOCCOCCOCCCN)CC[C@@]4(C)[C@]3(C)CC[C@H]2C1(C)C`, the entries for the “Ratio IC50” value in the experiment with HT-29 [1], in the experiment with B16-F10 [4] and in the experiment with HepG2 [6] were 3.1, 0.5 and 3.1, respectively. The IC50 with HepG2 [2] turned out to be 68.7 µM; in [3], 201 µM; with HT-29 [5], 138 µM.
`CC(=O)OC1CC[C@]2(C)[C@H]3CC=C4[C@@H]5CC(C)(C)CC[C@]5(C(=O)NCCCOCCOCCOCCCNC(=O)[C@]56CCC(C)(C)C[C@H]5C5=CC[C@@H]7[C@@]8(C)CC[C@H](OC(C)=O)C(C)(C)[C@@H]8CC[C@@]7(C)[C@]5(C)CC6)CC[C@@]4(C)[C@]3(C)CC[C@H]2C1(C)C` (single isomer, unassigned): the results for the “Ratio IC50” value in the experiment with HT-29 [1], with B16-F10 [4] and in the experiment with HepG2 [6] were 5.2, 0.9 and 8.7, respectively. Also, the IC50 in the experiment with HepG2 [2] was found to be 24.4 µM; in experiment [3], 119 µM; in the experiment on HT-29 [5], 83.2 µM.
Take `CC1(C)CC[C@]2(C(=O)O)CC[C@]3(C)C(=CC[C@@H]4[C@@]5(C)C[C@@H](O)[C@H](O)C(C)(C)[C@@H]5CC[C@]43C)[C@@H]2C1` [MASLINIC ACID]: the IC50 came to 99.2 µM in the experiment with HepG2 [2] and 32.2 µM in the experiment on HT-29 [5].
On to `CC(=O)O[C@@H]1C[C@]2(C)[C@H]3CC=C4[C@@H]5CC(C)(C)CC[C@]5(C(=O)O)CC[C@@]4(C)[C@]3(C)CC[C@H]2C(C)(C)[C@H]1OC(C)=O`, for which the half-inhibitory concentration (IC50) was determined as 50.2 µM in the experiment on HepG2 [2] and 69.1 µM with HT-29 [5]. Besides, the “Ratio IC50” value worked out at 0.8 in the experiment with B16-F10 [7], 0.5 in the experiment with HT-29 [8] and 2 in the experiment on HepG2 [9].
